This note sets out measurements from EP0397025B1, “[2-(2-pyridyl)ethyl]-methylamine salts” (PRODOTTI FORMENTI S.r.l., priority 1989, dated 1990).

Counter-ions that a name gives are not always drawn. Like-named read-outs stand apart in the source and are kept apart here.

Series [1] is described as follows: Partition coefficient octanol/buffer. The note with it: for logD: octanol/buffer, pH 9, octanol/buffer pH = 9.0. In kind it is physicochemical.
A further series has as its system gastric mucosa. As to the kind of experiment: Effect on gastric erosions (Adami index). The class given is in vivo. The note with it: for N^o GASTRIC EROSIONS / SEVERITY: Adami index. The method, then: A comparison test between betahistine hydrochloride and betahistine fumarate was carried out, evaluating the toxicity (LD₅₀) and the effect on gastric erosions, at equimolar doses.
Admnistration volume = 15 ml/kg Evaluation of the stomach conditions = 1h after administration according to Adami index.

A short description of series [2]: pH of the administered treatment. The class given is physicochemical. The note with it: treatment as administered in the gastric erosion test.
Series [3] in a line: Bioavailability test on rats. The note with it: rat, in vivo. The method, then:
The AUCs, in the time 0-3 hours, for betahistine fumarate and betahistine dihydrochloride evidence no significant differences (8.2 vs 7.6 h.µg/ml, respectively).

The nature of the next series: Solubility. In kind it is physicochemical.
The mark [4] stands for this setting: 20 mmoles/kg, administration volume 15 ml/kg, 1h after administration, dihydrochloride.
The mark [5] stands for this setting: 20 mmoles/kg, administration volume 15 ml/kg, 1h after administration.

Consider `CNCCc1ccccn1` [BETAHISTINE, [2-(2-Pyridyl)ethyl]-methylamine], for which the “Partition coefficient P” value in series [1] (octanol/buffer pH = 9.0) came to 0.147.

With `CNCCc1ccccn1` [BETAHISTINE DIHYDROCHLORIDE, betahistine dihydrochloride, reference compound], in the series with gastric mucosa (setting [4]), the “N^o GASTRIC EROSIONS” value came out at 7.92±1.26, the SEVERITY stood at 3.85±0.35 and the “% ANIMALS WITH EROSIONS: serious erosions” value worked out at 92.32% serious erosions. The pH entry in series [2] (dihydrochloride) is listed as “BETAHISTINE DIHYDROCHLORIDE pH=1.6”. Also, in series [3], the AUC turned out to be 7600 ng·h/mL and the bioavailability result is “substantially the same bioavailability”.

`CNCCc1ccccn1` [BETAHISTINE FUMARATE, Betahistine Fumarate]: the Solubility in acetone result in “Solubility” (acetone) was “poorly soluble”. In addition, the “Solubility in acid aqueous solutions” value in the series “Solubility” (acid aqueous solutions) is “soluble”. Further, the Solubility in chloroform result in the series “Solubility” (chloroform) is “almost unsoluble”. Also, the Solubility in ethanol result in “Solubility” (ethanol) is “soluble”. In addition, in the series “Solubility” (methanol), the Solubility in methanol entry is on record as “soluble”. In addition, the Solubility in water entry in “Solubility” (water) is “soluble”. In addition, in the series on gastric mucosa (setting [5]), the “% ANIMALS WITH EROSIONS: diffused bleeding” value is 20%, the “% ANIMALS WITH EROSIONS: serious erosions” value is 10%, the “N^o GASTRIC EROSIONS” value is recorded as 0.3±0.3 and the SEVERITY is listed as 0.6±0.31. Further, the “effect on gastric erosions” value in the series with gastric mucosa (equimolar doses, compared with the hydrochloride) is “markedly improved”. Further, the logD in series [1] (read-out: Partition coefficient P (converted)) is -0.904. Also, in series [1] (read-out: logP), the logD came to 0.904. In series [2], the pH entry is listed as “BETAHISTINE FUMARATE pH = 4.19”. In addition, the “plasmatic curve peak after the administration” value in series [3] came to 15 min. Also, the AUC at 3 h in series [3] (rats, 0-3 hours, read-out: AUCs, in the time 0-3 hours) is 8200 ng·h/mL.
